Calls of active or inactive are those of the source. Rule as the data show it, for most assays here: actives have a measured EC50 and inactives only a lower limit.
Experiments:
[1] = biological target: T1, Heat shock factor protein 1 (Mus musculus, UniProt P38532); test: enhancement of HSF1-driven luciferase signal – cell-based, NIH3T3, luminescence, dose retest, confirmation (AID 435004); type: functional;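 also: stress induced by proteasome inhibitor MG132 added 30 min after compound; luciferase reporter driven by HSF1 response element in NIH3T3 cells; actives raise luminescence as potentiators of the MG132 stress response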
T1 sequence (P38532 whole entry): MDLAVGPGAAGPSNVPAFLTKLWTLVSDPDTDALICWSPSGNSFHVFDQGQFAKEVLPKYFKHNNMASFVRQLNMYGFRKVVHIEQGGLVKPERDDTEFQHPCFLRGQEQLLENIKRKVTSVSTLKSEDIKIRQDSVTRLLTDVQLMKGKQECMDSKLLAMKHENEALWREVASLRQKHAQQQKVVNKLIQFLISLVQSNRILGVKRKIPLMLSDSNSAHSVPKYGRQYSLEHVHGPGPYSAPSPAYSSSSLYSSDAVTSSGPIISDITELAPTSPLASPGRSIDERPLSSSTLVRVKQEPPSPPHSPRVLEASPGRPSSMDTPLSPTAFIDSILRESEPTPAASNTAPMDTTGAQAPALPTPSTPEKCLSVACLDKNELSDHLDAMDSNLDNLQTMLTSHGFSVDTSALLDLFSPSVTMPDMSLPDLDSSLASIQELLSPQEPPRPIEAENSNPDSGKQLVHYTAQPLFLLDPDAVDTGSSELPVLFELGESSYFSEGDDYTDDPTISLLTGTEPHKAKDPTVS

Protein RecA = biological target: T2, Protein RecA (Mycobacterium tuberculosis, UniProt P9WHJ3); test: Fluorescence Cell-Free Homogeneous Dose Retest to Identify Inhibitors of RecA-Intein Splicing Activity. [Related pubchem assays (depositor defined):AID2097, AID2223, AID489010, AID492950]; type: functional
T2 sequence (P9WHJ3 whole entry): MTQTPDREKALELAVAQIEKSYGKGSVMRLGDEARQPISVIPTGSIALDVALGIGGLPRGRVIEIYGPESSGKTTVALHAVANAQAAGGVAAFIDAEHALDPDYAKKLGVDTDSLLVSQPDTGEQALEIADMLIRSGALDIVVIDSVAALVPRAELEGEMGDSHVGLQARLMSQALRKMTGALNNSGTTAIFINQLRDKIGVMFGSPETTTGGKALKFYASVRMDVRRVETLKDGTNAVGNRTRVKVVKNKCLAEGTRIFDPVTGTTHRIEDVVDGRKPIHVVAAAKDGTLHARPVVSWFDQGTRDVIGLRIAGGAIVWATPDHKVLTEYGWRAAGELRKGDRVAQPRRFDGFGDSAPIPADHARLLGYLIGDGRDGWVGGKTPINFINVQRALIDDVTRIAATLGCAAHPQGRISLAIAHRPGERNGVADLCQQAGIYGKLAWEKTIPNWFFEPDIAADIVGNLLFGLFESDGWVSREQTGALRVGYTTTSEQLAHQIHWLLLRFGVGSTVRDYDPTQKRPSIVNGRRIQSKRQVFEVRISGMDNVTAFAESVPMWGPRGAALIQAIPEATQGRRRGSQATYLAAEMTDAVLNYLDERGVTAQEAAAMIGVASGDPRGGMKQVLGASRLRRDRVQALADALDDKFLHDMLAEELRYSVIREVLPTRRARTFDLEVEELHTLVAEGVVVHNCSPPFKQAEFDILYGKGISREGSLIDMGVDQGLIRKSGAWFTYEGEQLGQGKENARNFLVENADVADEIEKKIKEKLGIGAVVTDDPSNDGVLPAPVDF

[2] = biological target: Luciferin 4-monooxygenase (Photinus pyralis, UniProt P08659); test: inhibition of purified Photinus pyralis luciferase – biochemical, luminescence, dose response (AID 1891)
Sequence of Luciferin 4-monooxygenase (P08659 whole entry): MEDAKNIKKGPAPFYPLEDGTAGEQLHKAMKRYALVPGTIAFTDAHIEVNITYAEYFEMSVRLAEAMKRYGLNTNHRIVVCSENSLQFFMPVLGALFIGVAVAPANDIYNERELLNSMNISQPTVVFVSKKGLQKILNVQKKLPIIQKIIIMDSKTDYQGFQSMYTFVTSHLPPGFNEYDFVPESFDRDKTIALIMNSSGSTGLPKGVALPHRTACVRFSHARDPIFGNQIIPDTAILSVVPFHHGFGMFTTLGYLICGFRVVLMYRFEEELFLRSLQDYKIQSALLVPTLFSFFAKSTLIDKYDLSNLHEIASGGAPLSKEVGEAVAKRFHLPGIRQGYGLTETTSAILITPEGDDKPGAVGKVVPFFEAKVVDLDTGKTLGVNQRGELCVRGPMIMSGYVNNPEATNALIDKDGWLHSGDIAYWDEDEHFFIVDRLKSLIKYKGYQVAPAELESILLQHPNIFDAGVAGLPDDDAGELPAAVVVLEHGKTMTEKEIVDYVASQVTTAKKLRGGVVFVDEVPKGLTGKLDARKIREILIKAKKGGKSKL

[3] = Luminescence Cell-Based Dose Confirmation HTS to Identify Inhibitors of Platelet Dense Granule Release. [Related pubchem assays: 1663 (Primary HTS), 1678 (Summary of Project)]; type: functional
Cytochrome P450 1A2 = biological target: T3, Cytochrome P450 1A2 (Homo sapiens, UniProt P05177);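 also: PubChem cytochrome P450 panel assay, CYP1A2 panel member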
T3 sequence (P05177 whole entry): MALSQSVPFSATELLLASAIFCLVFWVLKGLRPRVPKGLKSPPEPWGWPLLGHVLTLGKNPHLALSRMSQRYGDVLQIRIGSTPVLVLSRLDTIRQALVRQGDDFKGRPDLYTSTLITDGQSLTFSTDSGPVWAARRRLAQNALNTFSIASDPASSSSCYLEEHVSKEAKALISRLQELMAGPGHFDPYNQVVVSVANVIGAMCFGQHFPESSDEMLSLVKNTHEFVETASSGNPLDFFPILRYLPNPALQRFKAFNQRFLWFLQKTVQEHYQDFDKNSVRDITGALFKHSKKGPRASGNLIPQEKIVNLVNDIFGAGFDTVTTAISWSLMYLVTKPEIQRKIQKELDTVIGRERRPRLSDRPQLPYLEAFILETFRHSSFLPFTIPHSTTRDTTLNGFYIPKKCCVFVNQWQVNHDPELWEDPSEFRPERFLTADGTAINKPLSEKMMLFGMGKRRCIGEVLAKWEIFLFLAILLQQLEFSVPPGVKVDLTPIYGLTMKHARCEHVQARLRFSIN

[4] = Luminescence Cell-Based Dose Confirmation HTS to Identify Activators of 5'UTR Stem-Loop Driven Alpha-Synuclein mRNA Translation in H4 Neuroglioblastoma Cells. [Related pubchem assays: 1829 (Project Summary), 1814 (Primary HTS)]; type: functional
[5] = Luminescence Cell-Based Dose Response HTS to Identify Activators of Luciferase Translation or Activity in H4 […] Cells. [Related pubchem assays: 1829 (Project Summary), 1814 (Primary HTS)]; type: functional
H4 = test: Luminescence Cell-Based Dose Response HTS to Identify Activators of 5'UTR Stem-Loop Driven Prion Protein mRNA Translation in H4 Neuroglioblastoma Cells. [Related pubchem assays: 1829 (Project Summary), 1814 (Primary HTS)]; type: functional; details: Homo sapiens
[6] = biological target: T4, Replicative DNA helicase DnaB (Mycobacterium tuberculosis, UniProt P9WMR3); test: DnaB intein splicing inhibitors, dose response, biochemical, cell-free fluorescence (AID 449749); type: functional
T4 sequence (P9WMR3 whole entry): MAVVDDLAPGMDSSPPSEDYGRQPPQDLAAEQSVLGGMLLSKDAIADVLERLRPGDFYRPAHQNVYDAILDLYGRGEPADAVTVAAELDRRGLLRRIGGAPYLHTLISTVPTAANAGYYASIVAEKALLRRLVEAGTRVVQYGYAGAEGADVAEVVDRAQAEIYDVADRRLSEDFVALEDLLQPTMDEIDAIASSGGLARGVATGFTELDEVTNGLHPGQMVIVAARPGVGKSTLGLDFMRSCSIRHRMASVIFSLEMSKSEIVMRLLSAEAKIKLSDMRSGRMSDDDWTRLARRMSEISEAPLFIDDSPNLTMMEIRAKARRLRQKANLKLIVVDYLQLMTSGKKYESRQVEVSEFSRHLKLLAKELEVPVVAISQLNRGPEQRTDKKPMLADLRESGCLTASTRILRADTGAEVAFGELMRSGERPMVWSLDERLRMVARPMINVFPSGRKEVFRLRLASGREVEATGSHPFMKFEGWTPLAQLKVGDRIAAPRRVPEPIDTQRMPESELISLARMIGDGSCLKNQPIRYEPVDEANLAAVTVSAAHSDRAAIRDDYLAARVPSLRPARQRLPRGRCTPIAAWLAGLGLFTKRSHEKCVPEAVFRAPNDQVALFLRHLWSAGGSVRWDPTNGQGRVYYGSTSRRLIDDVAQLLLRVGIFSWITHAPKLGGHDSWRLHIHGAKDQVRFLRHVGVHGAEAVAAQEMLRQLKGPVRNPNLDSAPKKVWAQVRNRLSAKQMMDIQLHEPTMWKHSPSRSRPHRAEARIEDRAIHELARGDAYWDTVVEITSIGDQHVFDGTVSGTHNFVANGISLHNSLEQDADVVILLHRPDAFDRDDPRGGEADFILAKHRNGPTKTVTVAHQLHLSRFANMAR

[7] = microbe, parasite or virus in culture; type: functional; details: Mycobacterium tuberculosis
[8] = tested on: Streptococcus sp. 'group A'; test: Streptococcus pyogenes SK(-)GAS viability under kanamycin – luminescence, BacTiterGlo, confirmation, counter-screen for streptokinase expression inhibitor project, dose response (AID 1900); type: functional, organism-based
Streptococcus = test: GAS UMAA2166 growth inhibition – luminescence, BacTiterGlo, counter-screen for streptokinase expression inhibitor project, dose response (AID 1915); type: functional, organism-based;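 also: potency for reduction of bacterial viability or growth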
[9] = luciferase reporter signal suppression in cells – H4 neuroglioma cells, luminescence, dose response (AID 1990); type: functional, cell-based
[10] = Luminescence Cell-Based Dose Response HTS to Identify Inhibitors of 5'UTR Stem-Loop Driven Prion Protein mRNA Translation in H4 Neuroglioblastoma Cells. [Related pubchem assays: 1827 (Project Summary), 1813 (Primary HTS)]; type: functional
[11] = alpha-synuclein stem-loop luciferase translation blockers – H4 neuroglioma cells, luminescence, confirmation (AID 1988); type: functional, cell-based

## Cc1ccc2nc(-c3ccc4c(c3)OCCO4)cc(C(=O)O)c2c1
[1]
  EC50: > 260 µM (inactive)

## Cc1n[nH]c(O)c1[C@@H](c1ccccc1[N+](=O)[O-])C(C#N)C#N
Protein RecA
  EC50: 2.63 µM (active)

## COC(=O)C1CSC(C(=O)OC)N1C(=O)Nc1ccccc1 (stereo not given)
[2]
  EC50: > 112 µM (not active)
[3]
  EC50: > 112 µM (not active)
Cytochrome P450 1A2
  AC50: 25.1 µM (inconclusive)

## CC(C)(CO)NCC(O)COc1ccc2c(c1)CCC2 (stereo not given)
[2]
  EC50: > 112 µM (not active)
[3]
  EC50: > 112 µM (not active)

## CCN(CC)S(=O)(=O)c1ccc(OC)c(NC(=O)c2cc3c(=O)n4ccccc4nc3s2)c1
[1]
  EC50: > 260 µM (inactive)

## CN(Cc1ccccc1)C(=O)CCC1CCN(C(=O)CC2=CCCCC2)CC1
[1]
  EC50: > 260 µM (inactive)

## Cc1c(C(=O)N(Cc2ccncc2)CC2CCCO2)oc2c(F)cccc12 (stereo not given)
[1]
  EC50: > 260 µM (inactive)

## COC(=O)c1cc(NC2c3ccccc3C(=O)N2c2cccnc2)cc(C(=O)OC)c1 (stereo not given)
[2]
  EC50: > 112 µM (not active)
[3]
  EC50: > 112 µM (not active)

## Cc1ccc(C(=O)NCCn2cc(SCC(=O)Nc3nnc(C)s3)c3ccccc32)cc1
[4]
  EC50: 7.83 µM (active)
[5]
  EC50: 23.2 µM (active)
H4
  EC50: > 120 µM (not active)
[2]
  EC50: > 112 µM (not active)
[3]
  EC50: > 112 µM (not active)

## Cc1ccc(O)c(C(=O)c2cnc3c(c2)CN(CCC(C)C)C(=O)N3)c1
[1]
  EC50: > 260 µM (inactive)

## Cc1nccn1-c1c([N+](=O)[O-])c(=O)n(C)c2ccccc12
[6]
  AC50: 29 µM (active)
Protein RecA
  EC50: 12.2 µM (active)

## Cc1cc(C)n2nc(SCc3cc(=O)oc4cc(C)c(C)cc34)nc2n1
[2]
  EC50: > 112 µM (not active)
[3]
  EC50: > 112 µM (not active)

## CCCCc1ccc(-c2ccc(Br)cc2)nc1
[1]
  EC50: > 260 µM (inactive)

## COc1ccc(CN2CCCC(C(=O)c3ccc(SC)cc3)C2)cc1Cn1cccn1 (stereo not given)
[7]
  CC50: > 40 µM (active)

## O=C(NC1CCCCC1)C1CCCN1S(=O)(=O)c1cccc2nsnc12 (stereo not given)
[1]
  EC50: > 260 µM (inactive)

## Cc1sc2ncnc(N3CCC(C(=O)NCC(=O)Nc4ccc(F)c(F)c4)CC3)c2c1C
[8]
  EC50: 4.44 µM (active)
[7]
  CC50: 30.4 µM (active)
Streptococcus
  EC50: 8.01 µM (active)

## CCC(=O)N1c2ccc(S(=O)(=O)CCC(=O)N3CCN(c4ccccc4F)CC3)cc2CC1C (stereo not given)
[2]
  EC50: > 112 µM (not active)
[3]
  EC50: > 112 µM (not active)

## CCOc1ccc2nc(NC(=O)c3ccc(C)o3)sc2c1
[2]
  EC50: 0.562 µM (active)
[3]
  EC50: 5.87 µM (active)

## CN1C(C(=O)NCc2ccc(OC(F)(F)F)cc2)CC2Cn3c(nc4cc(Cl)c(Cl)cc43)C21 (stereo not given)
[7]
  CC50: 34.1 µM (active)

## CC(=O)Nc1cc(OC(=O)c2ccco2)cc(OC(=O)c2ccco2)c1
[6]
  AC50: 1.77 µM (active)
Protein RecA
  EC50: 1.03 µM (active)

## Cc1cccc(C2c3[nH]c4ccccc4c3CCN2Cc2cnn(-c3ccc(F)cc3)c2)n1 (stereo not given)
[1]
  EC50: > 260 µM (inactive)

## CCOc1ccc(N2C=Nc3ccc(OCC)cc3C2)cc1
[7]
  CC50: > 40 µM (active)

## Cc1onc(-c2ccccc2)c1C(=O)N=C(N)c1ccc(Cl)cc1
[2]
  EC50: > 112 µM (not active)
[3]
  EC50: 28.4 µM (active)

## CC(Nc1cc(N2CCNCC2)ccc1[N+](=O)[O-])c1ccccc1 (stereo not given)
[9]
  EC50: > 120 µM (not active)
[10]
  EC50: > 120 µM (not active)
[11]
  EC50: 33.7 µM (active)
[1]
  EC50: > 260 µM (inactive)

## O=S(=O)(CCc1ccccc1)/N=C/c1cccs1
[2]
  EC50: > 112 µM (not active)
[3]
  EC50: > 112 µM (not active)

From ChEMBL document CHEMBL1201862, “PubChem BioAssay data set” (2004)
